#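 Where inhibition never reached the appropriate level, the endpoint shown equals the highest concentration tested. Otherwise, values were interpolated linearly from a five-concentration, 48-hour dose response in 96-well plates. GI50 is the concentration that inhibits growth by half. The concentration for full growth arrest is given as TGI.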
# Tests used:
# Assay in all cases: NCI anticancer screen, dose series, 48 h
# A549 NSCLC = system: A549 NSCLC
# SF-539 CNS = system: SF-539 CNS
# HOP-62 NSCLC = system: HOP-62 NSCLC
# EKVX NSCLC = system: EKVX NSCLC
# SK-MEL-2 melanoma = system: SK-MEL-2 melanoma
# MALME-3M melanoma = system: MALME-3M melanoma
# ACHN renal = system: ACHN renal
# OVCAR-8 ovarian = system: OVCAR-8 ovarian
# SR leukemia = system: SR leukemia
# IGROV1 ovarian = system: IGROV1 ovarian
SMILES,GI50 (A549 NSCLC),TGI (A549 NSCLC),GI50 (SF-539 CNS),TGI (SF-539 CNS),GI50 (HOP-62 NSCLC),TGI (HOP-62 NSCLC),GI50 (EKVX NSCLC),TGI (EKVX NSCLC),GI50 (SK-MEL-2 melanoma),TGI (SK-MEL-2 melanoma),GI50 (MALME-3M melanoma),TGI (MALME-3M melanoma),GI50 (ACHN renal),TGI (ACHN renal),GI50 (OVCAR-8 ovarian),TGI (OVCAR-8 ovarian),GI50 (SR leukemia),TGI (SR leukemia),GI50 (IGROV1 ovarian),TGI (IGROV1 ovarian)
COC(=O)C1=CNC=C(C(=O)OC)C1C1=CC(=O)C(C)=CC1=O,19.6 µM,42.1 µM,14.9 µM,29.6 µM,14.8 µM,28.2 µM,16.3 µM,30 µM,16.6 µM,30.9 µM,14.1 µM,27.5 µM,2.52 µM,8.18 µM,14.3 µM,29.1 µM,9.37 µM,43.5 µM,14.3 µM,27.5 µM
CCC[CH2][Sn]1([CH2]CCC)[O]CC(CN2CCCC2)[O]1 (centres undefined),47.2 µM,> 100 µM,16.9 µM,38.9 µM,34.1 µM,73.8 µM,12.9 µM,33.2 µM,13.8 µM,27.1 µM,4.59 µM,17.4 µM,17.3 µM,31.4 µM,14.1 µM,29.4 µM,10.4 µM,39.5 µM,21.1 µM,37.1 µM
O=C(N/N=C/c1ccc(Cl)cc1)c1ccc(C(F)(F)F)nc1Nc1cccc(C(F)(F)F)c1,2.89 µM,9.61 µM,2.11 µM,6.69 µM,2.47 µM,10.9 µM,1.97 µM,14.1 µM,2.58 µM,7.91 µM,3.86 µM,23 µM,2.73 µM,8.77 µM,2.23 µM,15.1 µM,0.879 µM,5.71 µM,2.4 µM,10.5 µM
COc1ccc(C(=O)C(C(=O)CCC(=O)Nc2cccc(Cl)c2)c2ccc(OC)cc2)cc1 (centres undefined),,> 100 µM,,> 100 µM,,> 100 µM,,> 100 µM,,> 100 µM,,> 100 µM,,> 100 µM,,> 100 µM,,> 100 µM,,> 100 µM
CN1C/C=C\CCOc2cccc(c2)-c2ccnc(n2)Nc2cccc(c2)C1,0.0469 µM,0.8 µM,0.0508 µM,0.227 µM,0.0482 µM,0.402 µM,0.0872 µM,0.961 µM,0.0397 µM,0.132 µM,0.107 µM,0.454 µM,0.0332 µM,1.49 µM,0.0385 µM,0.887 µM,0.0196 µM,0.116 µM,0.0487 µM,1.31 µM
CCOC(=O)[C@@H](N)CCC(=O)N[C@@H](CSCc1ccccc1)C(=O)N[C@@H](C(=O)OCC)c1ccccc1,> 73.2 µM,> 100 µM,17.6 µM,33.8 µM,16.6 µM,32.8 µM,25.2 µM,> 73.3 µM,16.7 µM,32.7 µM,19.7 µM,36.2 µM,18.6 µM,34.8 µM,16.8 µM,32.5 µM,9.97 µM,33.2 µM,19.3 µM,36.4 µM
COc1cc2c(cc1OC)C(CC(=O)NN=C(C)C)NCC2 (centres undefined),,> 100 µM,,> 100 µM,,> 100 µM,,> 100 µM,,> 100 µM,,> 100 µM,,> 100 µM,,> 100 µM,,> 100 µM,,> 100 µM
COC(=O)[C@H](C)NC(=O)NC(=O)NC(=O)CI,20 µM,36.3 µM,15.9 µM,30.3 µM,17.2 µM,32.6 µM,17.5 µM,32 µM,15.4 µM,29.9 µM,2.07 µM,5.13 µM,6.76 µM,21 µM,16.6 µM,33.9 µM,2.43 µM,5.94 µM,17.1 µM,35.4 µM
N#CCN1C(=O)c2cccc3cc([N+](=O)[O-])cc(c23)C1=O,,> 100 µM,,> 100 µM,,> 100 µM,,> 100 µM,,22.2 µM,,92.7 µM,,> 100 µM,,> 100 µM,,41.8 µM,,> 100 µM
CCOC(=O)C1=C(C)N(NC(=O)Nc2ccccc2)C(=O)C1=P(c1ccccc1)(c1ccccc1)c1ccccc1,,> 100 µM,,53.3 µM,,> 100 µM,,> 100 µM,,98.3 µM,,> 100 µM,,> 100 µM,,> 100 µM,,56.1 µM,,> 100 µM
COc1cc2ncnc(Nc3ccc(C)c(O)c3)c2cc1OC,18.1 µM,> 25 µM,5.98 µM,> 23 µM,> 25 µM,> 25 µM,6.3 µM,> 25 µM,> 13.4 µM,> 20 µM,> 25 µM,> 25 µM,0.799 µM,> 25 µM,11.2 µM,> 25 µM,> 25 µM,> 25 µM,1.98 µM,> 12 µM
COC1=C(C)C(=O)c2c(c(COC(N)=O)c3n2CC2C3N2C)C1=O (centres undefined),,0.0645 µM,,0.12 µM,,0.074 µM,,0.376 µM,,0.109 µM,,0.164 µM,,< 0.0139 µM,,0.216 µM,,< 0.0354 µM,,0.351 µM
COC1(OC)C2(Cl)C(Cl)=C(Cl)C1(Cl)C1C=CC=CC12 (centres undefined),,> 100 µM,,> 100 µM,,> 100 µM,,> 100 µM,,63 µM,,> 100 µM,,> 100 µM,,> 100 µM,,> 100 µM,,> 100 µM
Cc1cn(C2CC(O)C(CO)O2)c(=O)n2nnnc12 (centres undefined),,> 100 µM,,> 100 µM,,> 100 µM,,> 100 µM,,> 100 µM,,> 100 µM,,,,> 100 µM,,> 100 µM,,> 100 µM
Cc1nc(N)sc1C(=O)/C=C\c1ccc2c(c1)OCO2,,> 100 µM,,> 100 µM,,> 100 µM,,> 100 µM,,> 100 µM,,> 100 µM,,> 100 µM,,> 100 µM,,> 100 µM,,> 100 µM
O=C(O)C1OC(n2cc(F)c(=O)[nH]c2=O)CC1O (centres undefined),,> 100 µM,,26.2 µM,,> 89.2 µM,,> 100 µM,,> 100 µM,,> 100 µM,,> 59.1 µM,,> 100 µM,,> 100 µM,,> 100 µM

# Reference: PubChem BioAssay (NCI)
